Laboratory results taken from US10345295B2, “Device and method for point-of-care diagnostics and antibiotic resistance identification, and applications thereof” (CORNELL UNIVERSITY, priority 2015, dated 2019).

Test system: attenuated E. coli K12 strain with a kanamycin resistance gene
Assay: colorimetric phenotypic antibiotic susceptibility test (phenol red) in capillary tubes
Format: cell-based
Conditions: bacteria culture incubated in capillary tubes with added antibiotic; LB media, 0.05% phenol red; read at the 4-hour mark
Method: According to an embodiment, a colorimetric phenotypic testing approach was utilized to assess the antibiotic susceptibility of an attenuated E. coli K12 strain. The pH indicator phenol red was used to provide a phenotypic indication of bacterial growth. For colorimetric phenotypic testing approach, bacterial growth tests were conducted with small sample volumes in a PDMS microchip. The E. coli strain with a kanamycin resistance gene as a selection marker was first streaked and incubated overnight on LB agar plates containing kanamycin. Single colonies were subsequently picked and propagated in liquid bulk culture. Following overnight bulk culture to stationary phase, small volumes (˜1 μL) of culture were separately incubated on the PDMS chip in wells each containing a 19 μL mixture of fresh LB media, 0.05% phenol red, and the antibiotics kanamycin (control) and ampicillin (test). The metabolic activity of viable bacteria leads to an accumulation of organic acids in the growth media, which causes the phenol red to change in color from red to yellow, which is expected for the control group as the E. coli stain is kanamycin resistant.
A similar experiment was conducted by incubating the bacteria culture in capillary tubes designed to hold microliters of liquid. […]

## CC1(C)S[C@@H]2[C@H](NC(=O)[C@H](N)c3ccccc3)C(=O)N2[C@H]1C(=O)O [ampicillin]
  color change of phenol red pH indicator (phenotypic indication of bacterial growth): No color change
